Laboratory results from ChEMBL document CHEMBL1201862, “PubChem BioAssay data set” (2004).
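Tested at 5 concentrations; 48 h exposure; 96-well plates; endpoints linearly interpolated, else capped at highest concentration. GI50: concentration for 50% inhibition of growth.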 The source made the active and inactive calls. No stated cut-off is given here; in the data, active = GI50 up to about 1.1 µM and inactive = higher.

Experiments:
Assay in all cases: inhibition of tumour cell growth, NCI panel, 48 h
HCT-116 = test system: HCT-116
COLO 205 = test system: COLO 205
SK-OV-3 = test system: SK-OV-3
MDA-MB-231 = test system: MDA-MB-231
OVCAR-3 = test system: OVCAR-3
SK-MEL-28 = test system: SK-MEL-28
SK-MEL-5 = test system: SK-MEL-5
T47D = test system: T47D
SNB-19 = test system: SNB-19
SF-268 = test system: SF-268
SN12C = test system: SN12C
SF-539 = test system: SF-539
A549 = test system: A549
Malme-3M = test system: Malme-3M
DU-145 = test system: DU-145
K562 = test system: K562
MCF7 = test system: MCF7
LOX IMVI = test system: LOX IMVI
CAKI-1 = test system: CAKI-1

Measured: GI50

CCOC1NC(=O)c2ccccc21 (configuration not stated)
inactive: HCT-116 > 100 µM | COLO 205 > 100 µM | SK-OV-3 > 100 µM | MDA-MB-231 > 100 µM | OVCAR-3 > 100 µM | SK-MEL-28 > 100 µM | SK-MEL-5 > 100 µM | T47D > 100 µM | SNB-19 > 100 µM | SF-268 > 100 µM | SN12C > 100 µM | SF-539 > 100 µM | A549 > 100 µM | Malme-3M > 100 µM | DU-145 > 100 µM | K562 > 100 µM | MCF7 > 100 µM | LOX IMVI > 100 µM

COc1ccc(/C(C)=N/NC(=O)c2ccncc2)cc1OC
inactive: COLO 205 > 10 µM | SK-OV-3 > 10 µM | CAKI-1 > 10 µM | MDA-MB-231 > 10 µM | SK-MEL-5 > 10 µM | T47D > 10 µM | SF-268 > 10 µM | SN12C > 10 µM | SF-539 > 10 µM | A549 > 10 µM | Malme-3M > 10 µM | DU-145 > 10 µM | K562 > 10 µM | MCF7 > 10 µM | LOX IMVI > 10 µM

C[C@@H](NC(=O)Cn1c(Cl)nc2ccccc21)c1ccccc1
inactive: HCT-116 > 100 µM | COLO 205 > 100 µM | SK-OV-3 > 100 µM | CAKI-1 > 100 µM | MDA-MB-231 > 100 µM | OVCAR-3 > 100 µM | SK-MEL-28 > 100 µM | SK-MEL-5 17.5 µM | T47D 36.2 µM | SNB-19 > 100 µM | SF-268 > 100 µM | SF-539 > 100 µM | A549 > 100 µM | Malme-3M > 100 µM | DU-145 > 100 µM | K562 > 100 µM | MCF7 > 100 µM | LOX IMVI 75.7 µM

ClC(Cl)(Cl)C1=N[C@H]2[C@H](Br)[C@@H]3O[C@@H](c4ccccc4)[C@H](c4ccccc4)O[C@@H]3[C@H]2O1
inactive: HCT-116 18.7 µM | COLO 205 16.3 µM | SK-OV-3 18.5 µM | CAKI-1 16 µM | MDA-MB-231 23 µM | OVCAR-3 16.6 µM | SK-MEL-28 20.3 µM | SK-MEL-5 17.3 µM | T47D 30.2 µM | SNB-19 27.4 µM | SF-268 18.4 µM | SN12C 20.1 µM | A549 21.5 µM | Malme-3M 19.2 µM | DU-145 26.5 µM | K562 21.2 µM | MCF7 17.3 µM | LOX IMVI 17.1 µM

CCOC(=O)C1=C(OS(=O)(=O)C(F)(F)F)CCCC1
inactive: COLO 205 > 100 µM | SK-OV-3 > 100 µM | CAKI-1 > 100 µM | MDA-MB-231 > 100 µM | OVCAR-3 > 100 µM | SK-MEL-28 > 100 µM | SK-MEL-5 83 µM | T47D > 100 µM | SNB-19 > 100 µM | SF-268 > 100 µM | SF-539 > 100 µM | A549 > 100 µM | Malme-3M > 100 µM | DU-145 > 100 µM | K562 > 100 µM | MCF7 > 100 µM | LOX IMVI > 100 µM

O[C@@]1(C#Cc2ccc3c(c2)OCO3)CCC[C@H]1NCc1ccccc1
inactive: COLO 205 18.3 µM | SK-OV-3 35.7 µM | CAKI-1 28.4 µM | MDA-MB-231 24.9 µM | OVCAR-3 20.4 µM | SK-MEL-28 17.6 µM | SK-MEL-5 19.4 µM | T47D 18.7 µM | SNB-19 22.5 µM | SF-268 36.7 µM | SF-539 16 µM | A549 31.3 µM | Malme-3M 15.2 µM | DU-145 47.2 µM | K562 18.7 µM | MCF7 22.5 µM | LOX IMVI 15.6 µM

NC(=O)CNC(=O)[C@@H]1C[C@@H](OCCC(=O)O)CN1C(=O)OCc1ccccc1
inactive: HCT-116 > 100 µM | COLO 205 > 100 µM | SK-OV-3 > 100 µM | MDA-MB-231 > 100 µM | OVCAR-3 > 100 µM | SK-MEL-28 > 100 µM | SK-MEL-5 > 100 µM | T47D > 100 µM | SNB-19 > 100 µM | SF-268 > 100 µM | SN12C > 100 µM | A549 > 100 µM | Malme-3M > 100 µM | DU-145 > 100 µM | K562 > 100 µM | MCF7 > 100 µM | LOX IMVI > 100 µM

COC(=O)CCC1=CCC2(SC)C(=O)Nc3cccc1c32 (configuration not stated)
inactive: HCT-116 > 100 µM | COLO 205 > 100 µM | SK-OV-3 > 100 µM | CAKI-1 > 100 µM | MDA-MB-231 > 100 µM | OVCAR-3 > 100 µM | SK-MEL-28 > 100 µM | SK-MEL-5 > 100 µM | T47D 4.7 µM | SNB-19 > 100 µM | SF-268 > 100 µM | SN12C > 100 µM | SF-539 > 100 µM | A549 > 100 µM | Malme-3M > 100 µM | DU-145 44.5 µM | MCF7 > 100 µM | LOX IMVI > 100 µM

CCN(CC)c1ccc2cc(-c3nc(O)c4ccccc4n3)c(=N)oc2c1
inactive: HCT-116 > 100 µM | COLO 205 > 100 µM | SK-OV-3 > 100 µM | CAKI-1 > 100 µM | MDA-MB-231 > 100 µM | SK-MEL-28 > 100 µM | SK-MEL-5 > 100 µM | T47D > 100 µM | SNB-19 > 100 µM | SF-268 > 100 µM | SN12C > 100 µM | SF-539 > 100 µM | A549 > 100 µM | Malme-3M > 100 µM | DU-145 > 100 µM | K562 > 100 µM | MCF7 > 100 µM | LOX IMVI > 100 µM

C/C=C(/C)C(=O)O[C@H]1CCN2CC=C(COC(=O)[C@@](O)([C@H](C)OC)C(C)(C)O)[C@H]12
inactive: HCT-116 > 100 µM | COLO 205 > 100 µM | SK-OV-3 > 100 µM | CAKI-1 > 100 µM | MDA-MB-231 > 100 µM | OVCAR-3 > 100 µM | SK-MEL-28 > 100 µM | SK-MEL-5 > 100 µM | T47D > 100 µM | SNB-19 > 100 µM | SF-268 > 100 µM | SN12C > 100 µM | SF-539 > 100 µM | A549 > 100 µM | DU-145 > 100 µM | K562 > 100 µM | MCF7 > 100 µM | LOX IMVI > 100 µM

C=CCOCn1cc(C)c(=O)[nH]c1=O
inactive: HCT-116 > 100 µM | COLO 205 > 100 µM | SK-OV-3 > 100 µM | CAKI-1 > 100 µM | MDA-MB-231 > 100 µM | SK-MEL-28 > 100 µM | SK-MEL-5 > 100 µM | T47D > 100 µM | SNB-19 > 100 µM | SF-268 > 100 µM | SN12C > 100 µM | SF-539 > 100 µM | A549 > 100 µM | Malme-3M > 100 µM | DU-145 > 100 µM | K562 > 100 µM | MCF7 > 100 µM | LOX IMVI > 100 µM
